Common to all, as to assay type: cell-based
Assay [1] deals with T1, Ba/F3-V654A (KIT exon11 deletion (557-558) and secondary mutation V654A) (Homo sapiens, UniProt P10721, DEL557-558/V654A).
T1 construct: expressed in transfected cells; host or cells: Ba/F3 cells, lentiviral transduction (pLVX-IRES Puro)
The assay can be described thus: MTS viability assay, Ba/F3 expressing KIT exon11 deletion (557-558) and V654A. Particulars: 72 h incubation, top concentration 10 uM. The protocol:
(§1) Exponentially grown Ba/F3 cells (1.5×10^6 cells in 2 ml medium) were infected with 2 ml of viral suspension in a 6-well plate in the presence of mIL-3 (10 ng/ml) and polybrene (4 μg/ml) (Sigma Aldrich, St. Louis, Mo.) and incubated for 24 h. After 24 h, the cells were centrifuged and the viral supernatant was discarded. The cells were then re-suspended in fresh medium and allowed to recover for another day. The following day, the cells were seeded in complete medium without murine IL-3. After a week or two, when cells started proliferating, a selection was carried out by gradually increasing the puromycin concentration to 0.5 ug/ml. Once the cells were growing exponentially in puromycin, batches of cells were frozen down for banking.
(§2) The impact of KIT inhibitors on the viability of Ba/F3 expressing KIT mutations was determined using an MTS assay, which is a colorimetric sensitive quantification of viable cells in proliferation and cytotoxicity assay. In the MTS assay […] in the presence of phenazine methosulfate (PMS) was used. The mitochondrial reductase forms a formazan which absorbs at 490 nm. Cells in exponential growth phase were added to 384-well plates containing pre-dispensed compounds (top concentration 10 uM, 10-point curve). The cells were incubated for 72 h at 37° C. and 5% CO2. After 72 h, MTS reagent was added to the plates and incubated an additional 2 h at 37° C. before measuring the absorbance at 490 nm on a Tecan microplate reader using Magellan Software (Tecan Trading AG, Switzerland).
(§3) The absorbances were normalized as follows: (Read-Day0 control)/(Day3 control−Day0 control)*100. The GI50 values were generated using Genedata Screener software (Genedata Lexington, Mass.). A non-linear regression with constraints for top and bottom between 100 and −100 and no constraint on the Hill coefficient was used to generate GI50 values. The GI50 values reported below are the calculated mean result of at least 3 biological replicates across all the cell lines tested.
A general note: Tetrazolium dyes change colour on reduction, which living cells bring about.

Assay [2] has as its target T2, Ba/F3-D816H (KIT exon11 deletion (557-558) and secondary mutation D816H) (Homo sapiens, UniProt P10721, D816H/DEL557-558).
T2 construct: expressed in transfected cells; host or cells: Ba/F3 cells, lentiviral transduction (pLVX-IRES Puro)
In words: MTS viability assay, Ba/F3 expressing KIT exon11 deletion (557-558) and D816H. The conditions noted are these: 72 h incubation, top concentration 10 uM. The protocol: as §1, §2, §3

Assay [3] addresses T3, Ba/F3-T670I (KIT exon11 deletion (557-558) and secondary mutation T670I) (Homo sapiens, UniProt P10721, DEL557-558/T670I).
T3 construct: expressed in transfected cells; host or cells: Ba/F3 cells, lentiviral transduction (pLVX-IRES Puro)
In words: MTS viability assay, Ba/F3 expressing KIT exon11 deletion (557-558) and T670I. Particulars: 72 h incubation, top concentration 10 uM. As to the method: as §1, §2, §3

Another assay relates to Ba/F3-Parental. In words: MTS viability assay, Ba/F3 parental cells. The conditions noted are these: Mus musculus, BaF3, 72 h incubation, top concentration 10 uM. As to the method:
as §1, §2, §3

For assay [4], the system named is TEL-KDR (KDR (K790-V1356) fused to the C-terminus of Tel). The assay can be described thus: MTS viability assay, Ba/F3 expressing Tel-KDR. The conditions noted are these: 72 h incubation, top concentration 10 uM. As to the method: Tel-KDR myc was cloned into pBCS2004, a retroviral vector, wherein KDR (K790-V1356) is fused to the C-terminus of Tel. Retroviral particles were generated in HEK293T cells. The Tel-KDR plasmid was co-transfected with helper viruses (gag-Pol and VSV-G) into HEK293T cells using calcium phosphate and the virus was harvested 72 h after transfection.
as §1, §2, §3

T2 sequence (P10721 with tags, fused parts or gaps DEL557-558/D816H): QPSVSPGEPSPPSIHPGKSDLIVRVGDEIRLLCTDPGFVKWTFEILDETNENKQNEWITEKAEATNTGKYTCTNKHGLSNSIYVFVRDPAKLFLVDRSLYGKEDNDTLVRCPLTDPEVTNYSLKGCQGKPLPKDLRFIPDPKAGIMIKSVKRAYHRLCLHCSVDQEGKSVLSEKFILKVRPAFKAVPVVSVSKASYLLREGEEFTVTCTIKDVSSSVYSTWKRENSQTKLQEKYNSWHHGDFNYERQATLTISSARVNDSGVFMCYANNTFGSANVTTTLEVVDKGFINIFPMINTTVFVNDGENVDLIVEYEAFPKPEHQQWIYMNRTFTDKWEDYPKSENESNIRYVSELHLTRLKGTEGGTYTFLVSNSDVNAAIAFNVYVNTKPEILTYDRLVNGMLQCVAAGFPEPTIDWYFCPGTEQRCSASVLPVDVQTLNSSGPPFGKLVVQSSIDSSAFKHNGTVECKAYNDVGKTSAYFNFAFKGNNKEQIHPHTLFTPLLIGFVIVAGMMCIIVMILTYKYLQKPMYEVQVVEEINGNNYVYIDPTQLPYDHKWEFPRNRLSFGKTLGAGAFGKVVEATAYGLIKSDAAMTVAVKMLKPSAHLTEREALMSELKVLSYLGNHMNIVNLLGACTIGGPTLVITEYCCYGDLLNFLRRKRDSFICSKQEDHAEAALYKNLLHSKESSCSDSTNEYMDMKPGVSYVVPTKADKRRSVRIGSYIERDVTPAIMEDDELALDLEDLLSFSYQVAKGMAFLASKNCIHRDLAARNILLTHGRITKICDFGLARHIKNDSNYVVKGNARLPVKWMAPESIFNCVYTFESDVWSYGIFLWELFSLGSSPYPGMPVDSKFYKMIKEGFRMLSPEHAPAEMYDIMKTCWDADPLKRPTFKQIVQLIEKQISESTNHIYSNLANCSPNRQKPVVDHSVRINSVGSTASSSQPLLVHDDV
T3 sequence (P10721 with tags, fused parts or gaps DEL557-558/T670I): as the sequence (P10721 with tags, fused parts or gaps DEL557-558/D816H) above, with T643I, H789D counted along it
T1 sequence (P10721 with tags, fused parts or gaps DEL557-558/V654A): as the sequence (P10721 with tags, fused parts or gaps DEL557-558/D816H) above, with V627A, H789D counted along it

As for `COc1cc(OC(C)C)cc2ncnc(Nc3ccc(NC(=O)Cn4cc(C(C)C)nn4)cc3)c12` [Example 15, N-(4-{[5-Methoxy-7-(propan-2-yloxy)quinazolin-4-yl]amino}phenyl)-2-[4-(propan-2-yl)-1H-1,2,3-triazol-1-yl]acetamide], the “Ba/F3-V654A GI50” value in assay [1] was 11 nM. Moreover, the “Ba/F3-D816H GI50” value in assay [2] is 35 nM. Also, in assay [3], the “Ba/F3-T670I GI50” value stood at 254 nM. Also, the GI50 was not below 10000 nM in the assay with Ba/F3-Parental and 4180 nM in assay [4].
On the same counts, the results for `COc1cc(OC2CCOCC2)cc2ncnc(Nc3ccc(NC(=O)Cn4cc(C(C)C)nn4)cc3)c12` [Example 10, N-(4-{[5-Methoxy-7-(tetrahydro-2H-pyran-4-yloxy)quinazolin-4-yl]amino}phenyl)-2-[4-(propan-2-yl)-1H-1,2,3-triazol-1-yl]acetamide] are 7 nM, 65 nM, 640 nM, not below 10000 nM and 9480 nM.

As a reminder, the GI50 is the concentration giving 50% growth inhibition.

The values above are taken from patent publication US10273227B2, “C5-anilinoquinazoline compounds and their use in treating cancer” (AstraZeneca AB, priority 2017, dated 2019).
